Entries after “also recorded” stand apart in the source; their conditions may differ.

The target in the test is T1, HMGB1^SS (Homo sapiens, UniProt P09429).
T1 construct: (i) full length: residues 2-215; 6x His (cleaved yes); made in house; host or cells: Escherichia coli BL21
T1 sequence (P09429 2-215): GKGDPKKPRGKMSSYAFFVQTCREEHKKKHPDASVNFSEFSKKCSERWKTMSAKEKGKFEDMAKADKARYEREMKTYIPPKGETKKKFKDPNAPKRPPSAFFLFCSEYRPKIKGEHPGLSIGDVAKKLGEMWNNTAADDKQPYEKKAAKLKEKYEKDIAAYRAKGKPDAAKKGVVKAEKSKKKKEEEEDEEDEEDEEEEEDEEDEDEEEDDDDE
In words: HMGB1^SS-induced cytokine and COX-2 gene expression in human macrophages (qPCR). Type of test: cell-based. The settings on record: 3 h, 100 μM SA or 1 μM ac3AESA. As to the method: Human HeLa cells were grown in T75 flasks in DMEM medium supplemented with penicillin (10,000 IU/mL) streptomycin ([…]), and 10% fetal calf serum. Ptgs2−/− MEFs were derived from Ptgs2−/− E16 mouse embryos, obtained from the mating of Ptgs2+/− mice purchased from Taconic Biosciences. PBMCs were isolated from buffy coats of donor blood (Hospital of Magenta, Milan, Italy) by Ficoll gradient centrifugation (Lymphoprep; AXIS-SHIELD. CD14+ monocytes were isolated by positive immunoselection (CD14 Microbeads; Miltenyi Biotec) according to the manufacturer's instructions, and differentiated into macrophages using X-Vivo medium supplemented with 1% heat inactivated human serum, GM-CSF, and M-CSF.
Macrophages were exposed to 3 μg/ml HMGB1^SS or 50 ng/ml LPS. Total RNAs were isolated using the Illustra RNAspin Mini kit (GE Healthcare), and complementary DNA (cDNA) was obtained by retro-transcription with oligo(dT) primers (Invitrogen, Carlsbad, Calif., USA) and SuperScript II Reverse Transcriptase (Invitrogen) following the manufacturers' instructions. Quantitative real-time PCR was performed using a LightCycler480 (Roche Molecular Diagnostics), in duplicates, using SYBR Green I master mix and the oligonucleotides listed in Table of primers below. The ΔCt method was used for quantification, and the β-actin gene was used for normalization.

Take `O=C(O)c1ccccc1O` [SA, salicylic acid]: the “suppression of cytokine (IL-6, TNFα) and COX-2 expression induced by HMGB1^SS” value is “partially or completely suppressed; also recorded: partially suppressed”.

For the origin of these results see patent US20180045715A1, “STRUCTURE AND FUNCTION OF THE SALICYCLIC ACID BINDING SITES ON HUMAN HMGB1 AND METHODS OF USE THEREOF FOR THE RATIONAL DESIGN OF BOTH SALICYCLIC ACID DERIVATIVES AND OTHER AGENTS THAT ALTER ANIMAL AND PLANT HMGBS ACTIVITIES” (Boyce Thompson Institute for Plant Research, Inc., priority 2015, published 2018).
